Converted amounts (≈) assume the structure as drawn. “Also recorded” adds a separate entry of the source. Like-named read-outs stand apart in the source and are kept apart here.
Columns and labels:
[1] = test system: Escherichia coli ATCC 26; test: Antibacterial activity by agar dilution method at pH 7.0; type: cell-based
[2] = test system: Staphylococcus aureus ATCC 6538P; test: as above; type: cell-based; settings: ATCC6538P
[3] = LD50 (acute toxicity); settings: in vivo
[4] = test system: Salmonella typhosa ATCC 9992; test: Antibacterial activity by agar dilution method at pH 7.0; type: cell-based; settings: Salmonella enterica
[5] = Solubility; settings: solvents named in the value
[6] = test system: Klebsiella pneumoniae ATCC 10031; test: Antibacterial activity by agar dilution method at pH 7.0; type: cell-based
[7] = test system: Bacillus subtilis No. 10707; test: as above; type: cell-based

## COc1c2c(c(O)c3c4c(c(C)cc13)C1OC3(C(OC)OC)OC1C(O)(O4)C31CO1)C(=O)C(O)CC2O (stereo not shown) [DC-45-A2]
[1]; ATCC26, Escherichia coli ATCC 26, agar dilution, pH 7.0, read-out: Minimum Inhibitory Concentration
  MIC: 25 µg/mL (≈ 48.2 µM)
[2]; Staphylococcus aureus ATCC 6538P, agar dilution, pH 7.0, read-out: Minimum Inhibitory Concentration
  MIC: 100 µg/mL (≈ 193 µM)
[3]; ip
  LD50: 5.8 mg/kg
[3]; iv
  LD50: 14 mg/kg
[4]; Salmonella typhosa ATCC 9992, agar dilution, pH 7.0, read-out: Minimum Inhibitory Concentration
  MIC: 50 µg/mL (≈ 96.4 µM)
[5]
  Solubility: Soluble in methanol, ethanol, acetone, ethyl acetate and chloroform; also recorded: soluble with difficulty in benzene, ether and water; also recorded: insoluble in n-hexane
[6]; ATCC10031, Klebsiella pneumoniae ATCC 10031, agar dilution, pH 7.0, read-out: Minimum Inhibitory Concentration
  MIC: 12 µg/mL (≈ 23.1 µM)
[7]; Bacillus subtilis No. 10707, agar dilution, pH 7.0, read-out: Minimum Inhibitory Concentration
  MIC: 100 µg/mL (≈ 193 µM)

## COc1c2c(c(O)c3c4c(c(C)cc13)C1OC3(C(OC)OC)OC1C(O)(O4)C31CO1)C(=O)C(O)CC2OC1CC(C)(O)C(OC(C)=O)C(C)O1 (stereo not shown) [DC-45-A1]
[1]; Escherichia coli, ATCC26, pH 7, read-out: Minimum Inhibitory Concentration
  MIC: 12 µg/mL (≈ 17 µM)
[2]; Staphylococcus aureus, pH 7, read-out: Minimum Inhibitory Concentration
  MIC: 0.4 µg/mL (≈ 0.568 µM)
[3]; ip
  LD50: 0.375 mg/kg
[3]; iv
  LD50: 0.375 mg/kg
[4]; pH 7, read-out: Minimum Inhibitory Concentration
  MIC: 50 µg/mL (≈ 71 µM)
[5]
  Solubility: Soluble in methanol, ethanol, acetone, ethyl acetate and chloroform; also recorded: soluble with difficulty in benzene and aqueous ether; also recorded: insoluble in n-hexane
[6]; Klebsiella pneumoniae, ATCC10031, pH 7, read-out: Minimum Inhibitory Concentration
  MIC: 0.4 µg/mL (≈ 0.568 µM)
[7]; Bacillus subtilis, NO.10707, pH 7, read-out: Minimum Inhibitory Concentration
  MIC: 0.04 µg/mL (≈ 0.0568 µM)

— patent US4459291A, “Compounds having antibiotic activity, processes for their preparation, pharmaceutical compositions containing them and their use as medicaments” (priority 1981, dated 1984)
